Laboratory results from patent publication US20230234941A1, “Salts of Compound and Pharmaceutical Compositions Containing the Same” (Shenzhen Forward Pharmaceuticals Co., Limited., priority 2020, published 2023).
Converted amounts (≈) assume the structure as drawn. “Also recorded” adds a separate entry of the source.

Legend:
[1] = Solid storage stability test; format: physicochemical; conditions: for Original morphology / Original purity: original solid before storage; for chemical and physical stability after storage (summary): solid/25° C./60% RH/open/1 week and/or solid/60° C./closed container/1 week
Protocol: Each amorphous salt solid was weighed (two 2 mg samples were weighed for purity testing after solid storage stability study, and one 10 mg sample was weighed for XRPD testing after solid storage stability study) and placed in a glass vial. In a 25° C./60% RH solid storage stability test, the amorphous salt solid was placed in a 25° C./60% RH constant temperature and humidity chamber, and placed in the dark for 1 week (i.e. “solid/25° C./60% RH/open/1 week”), and in a 60° C. solid storage stability test, the amorphous salt solid was sealed in an oven at 60° C. and heated for 1 week in the dark (i.e. “solid/60° C./closed container/l week”). Then the sample was taken out for purity testing, crystal form detection and appearance observation, respectively.

[2] = Solid solubility test (2 h and 24 h); format: physicochemical; conditions: for XRPD measured at 2 h: state of sample / solid fraction
Protocol: samples were weighed for each amorphous salt solid (equivalent to 20 mg of free base), and 10 mL of the following solvents were respectively added: 0.1N HCl solution (pH 1.0), 50 mM phosphate buffer (pH 4.5), FeSSIF-V1 (pH 5.0), FaSSIF-V1 (pH 6.5) and SGF (pH 2.0), […] The suspension was then centrifuged at 37° C., the supernatant was measured for solubility by HPLC, and the solid fraction was measured for XRPD. The target solubility was at least 2 mg (based on free base)/mL.

[3] = Chemical and physical stability of the salts at the end of the preparation; format: physicochemical
Source text: It is crucial for drug development whether the salts obtained as above have chemical and physical stability at the end of the preparation. The chemical and physical stability of the salts at the end of the preparation includes: […]

[4] = test system: EGFR activating mutation (such as exon 19 deletion activating mutation, L858R activating mutation, T790M drug resistance mutation and exon 20 insertion …); conditions: disclosed in CN105461695B; cited from earlier work
[5] = Test BS1: solid/25° C./60% RH/open/1 week
[6] = listed as amorphous 1 eq. maleate salt
[7] = solid/60° C./closed container/1 week (Test BS1)
[8] = FaSSIF-V1 (pH 6.5) (Test ES4, partly printed ES1)
[9] = FaSSIF-V1 (pH 6.5) (Test ES4, partly printed ES1), 37° C., based on free base
[10] = Test ES1: 0.1N HCl solution (pH 1.0)
[11] = Test ES1: 0.1N HCl solution (pH 1.0), 37° C., based on free base
[12] = Test ES2: 50 mM phosphate buffer (pH 4.5)
[13] = Test ES2: 50 mM phosphate buffer (pH 4.5), 37° C., based on free base
[14] = Test ES3: FeSSIF-V1 (pH 5.0), 37° C., based on free base
[15] = listed as 1 eq. hydrobromide salt
[16] = listed as crystalline 1 eq. hydrobromide salt

| SMILES | Purity [1, 5] [%] | Original morphology [1] | Original purity [1] [%] | Purity [1, 7] [%] | pH measured at 2 h [2, 8] | Solubility measured at 2 h [2, 9] [µg/mL] | pH measured at 2 h [2, 10] | Solubility measured at 2 h [2, 11] [µg/mL] | XRPD measured at 2 h [2, 10] | pH measured at 2 h [2, 12] | Solubility measured at 2 h [2, 13] [µg/mL] | XRPD measured at 2 h [2, 12] | pH measured at 2 h ([2]; Test ES3: FeSSIF-V1 (pH 5.0)) | Solubility measured at 2 h [2, 14] [µg/mL] | XRPD measured at 2 h ([2]; Test ES3: FeSSIF-V1 (pH 5.0)) | pH measured at 2 h ([2]; Test ES5: SGF (pH 2.0)) | XRPD measured at 2 h ([2]; Test ES5: SGF (pH 2.0)) | also measured |
| --- | --- | --- | --- | --- | --- | --- | --- | --- | --- | --- | --- | --- | --- | --- | --- | --- | --- | --- |
| C=CC(=O)Nc1cc(Nc2ncnc(-c3cn(C)c4ccccc34)n2)c(OC)cc1N(C)CCN(C)C [Example 9] | 99.7 | amorphous | 99.8 | 98.2 | (6.1) | >2000 | (0.8) | >2000 | clear solution | (4.3) | >2000 | clear solution | (4.8) | >2000 | clear solution | (2.0) | clear solution | chemical and physical stability after storage (summary) ([1]; listed as 1 eq. maleate salt): chemically unstable; also recorded: physically unstable; chemical and physical stability after storage (summary) [1, 6]: chemically unstable; also recorded: physically unstable; physical and chemical stability under storage (in words) ([1]; solid/25° C./60% RH/open/1 week, listed as amorphous 1 eq. maleate salt): slight color change and showed a certain hygroscopicity (agglomeration); decrease in purity ([1]; solid/60° C./closed container/1 week): about 2%; physical and chemical stability under storage (in words) ([1]; solid/60° C./closed container/1 week, listed as amorphous 1 eq. maleate salt): transformed from amorphous to a low crystallinity; XRPD measured at 2 h [2, 8]: clear solution; solubility at 2 h ([2]; SGF, 37 °C, pH 2, simulated gastric fluid, thermodynamic from solid, Test ES5: SGF (pH 2.0), 37° C., based on free base, read-out: Solubility measured at 2 h): > 2000 µg/mL; chemical and physical stability at the end of the preparation ([3]; listed as 1 eq. maleate salt): chemically and physically stable; chemical and physical stability at the end of the preparation [3, 6]: chemically and physically stable |
| C=CC(=O)Nc1cc(Nc2ncnc(-c3cn(C)c4ccccc34)n2)c(OC)cc1N(C)CCN(C)C [Example 10] | 99.9 | crystalline | 99.9 | 99.9 | (6.4) | 700 (≈ 1.4 mM) | (0.8) | >2000 | clear solution | (4.4) | >2000 | clear solution | (4.8) | >2000 | clear solution | (1.9) | clear solution | chemical and physical stability after storage (summary) [1, 15]: chemically and physically stable; chemical and physical stability after storage (summary) [1, 16]: chemically and physically stable; physical and chemical stability under storage (in words) ([1]; solid/25° C./60% RH/open/1 week, listed as crystalline 1 eq. hydrobromide salt): good physical and chemical stability; physical and chemical stability under storage (in words) ([1]; solid/60° C./closed container/1 week, listed as crystalline 1 eq. hydrobromide salt): good physical and chemical stability; Solubility measured at 2 h ([2]; Test ES5: SGF (pH 2.0), 37° C., based on free base): >2000 µg/mL; chemical and physical stability at the end of the preparation [3, 15]: chemically and physically stable; chemical and physical stability at the end of the preparation [3, 16]: chemically and physically stable |
| C=CC(=O)Nc1cc(Nc2ncnc(-c3cn(C)c4ccccc34)n2)c(OC)cc1N(C)CCN(C)C [compound of formula (I)] | – | – | – | – | – | – | – | – | – | – | – | – | – | – | – | – | – | inhibitory activity against EGFR activating mutation compared with wild-type EGFR (WT EGFR) [4]: significantly higher |
